The results in this text go back to US5908842A, “Substituted 2-acylamino-pyridines as inhibitors of nitric oxide synthase” (Merck & Co., Inc., priority 1997, dated 1999).

The assay deals with Human Inducible Nitric Oxide Synthase (Homo sapiens, UniProt P35228). The experiment in a line: Inhibition of human inducible nitric oxide synthase (formation of L-[3H]citrulline from L-[3H]arginine). Format: biochemical. As to conditions: 1 μM L-Arg, pH 7.5, room temperature, 30 minutes; for inhibition at 50 µM: 50 μM inhibitor. From the text:
J Lowenstein and S. H. Snyder in Methods in Enzymology, Vol. 233, L. Packer, ed., Academic Press, NY, 1994, Ch.26, pp. 264-269.
Various assays for NOS activity have been reported in the literature and are reviewed in the following: M. E. Murphy and E. Noack in Methods in Enzymology, Vol. 233, L. Packer, ed., Academic Press, NY, 1994, Ch.26, pp. 240-250 and J. M. Hevel and M. A. Marletta in Methods in Enzymology, Vol. 233, L. Packer, ed., Academic Press, NY, 1994, Ch.26, pp. 250-258. Details for the assay protocols to measure NOS activity are as follows:
NOS activity is measured as the formation of L-[2,3,4,5-^3 H]Citrullinefrom L-[2,3,4,5-^3 H]Arginine. The incubation buffer (100 μL) contained; 100 mM TES, pH 7.5, 5 μM FAD, 5 μM FMN, 10 μM BH4, 0.5 mM NADPH, 0.5 mM DTT, 0.5 mg/mL BSA, 2 mM CaCl2, 10 μg/mL calmodulin (bovine), 1 μM L-Arg, 0.2 μCi L-[2,3,4,5-^3 H]Arg, and the inhibitor in aqueous DMSO (max. 5 %). The reaction is initiated by addition of enzyme. Incubations are performed at room temperature for 30 minutes and stopped by the addition of an equal volume of quenching buffer consisting of 200 mM sodium citrate, pH 2.2, 0.02% sodium azide. Reaction products are separated by passing through a cation exchange resin and quantitated as cpm by scintillation counting. Percent inhibition is calculated relative to enzyme incubated without inhibitor according to: % inhibition =[…](cpm L-[2,3,4,5-^3 H]Cit with inhibitor/cpm L-[2,3,4,5-^3 H]Cit without inhibitor).

Some results are limits rather than exact numbers.

In general, IC50 refers to the concentration at which inhibition is half-maximal. Read a low IC50 as higher potency. What is called inhibition is the relative decrease from the control value, in per cent. Low values mean a weak effect, high ones a strong effect. Consider `Cc1ccc(NC(=O)Nc2cc(C)ccn2)cc1` [Example 1, N-(2-(4-Methylpyridyl))-N'-(4-methylphenyl)-urea], for which the IC50 is less than 50 µM and the inhibition at 50 µM is 54%. The matching figures for `Cc1ccnc(NC(N)=S)c1` [Example 2, N-(2-(4-Methylpyridyl))-thiourea]: less than 50 µM and 63%. `Cc1cc(C)nc(NC(N)=S)c1` [Example 3, N-(2-(4,6-dimethylpyridyl))-thiourea] gave an IC50 of less than 50 µM and an inhibition at 50 µM of 75%.

In the case of `C=CCNC(=S)Nc1ccc(C(F)(F)F)cn1` [Example 4, N-(2-(5-trifluoromethylpyridyl))-N'-allyl-thiourea], the IC50 is less than 10 µM and at 50 µM the inhibition was 86%. Regarding `C=CCNC(=S)Nc1cc(C)cc(C)n1` [Example 5, N-(2-(4,6-dimethylpyridyl))-N'-allyl-thiourea], the IC50 is less than 50 µM and the inhibition at 50 µM is 51%.

Molecule `Cc1ccnc(NC(=S)NC(C)C)c1` [Example 6, N-(2-(4-Methylpyridyl))-N'-isopropyl-thiourea] gave an IC50 of less than 1 µM and an inhibition at 50 µM of 100%. Molecule `CCNC(=S)Nc1cc(C)ccn1` [Example 7, N-(2-(4-Methylpyridyl))-N'-ethyl-thiourea] gave an IC50 of less than 10 µM. `Cc1ccnc(NC(=S)Nc2ccccc2)c1` [Example 8, N-(2-(4-Methylpyridyl))-N'-phenyl-thiourea] returned an inhibition at 50 µM of 50%. The molecule `S=C(Nc1ccc(Br)cc1)Nc1ccccn1` [Example 9, N-(2-Pyridyl)-N'-(4-bromophenyl)-thiourea] gave an IC50 of less than 50 µM and an inhibition at 50 µM of 55%. `Cc1ccnc(NC(=S)Nc2cccc3ccccc23)c1` [Example 10, N-(2-(4-Methylpyridyl))-N'-(1-naphthyl)-thiourea] gave an inhibition at 50 µM of 54%. For the molecule `Cc1ccnc(NC(=S)Nc2cccc(F)c2)c1` [Example 11, N-(2-(4-Methylpyridyl))-N'-(3-fluorophenyl)-thiourea], the IC50 is less than 50 µM and 50 µM produced 70% inhibition. `Cc1ccnc(NC(=S)NCc2ccccc2)c1` [Example 12] returned an IC50 of less than 50 µM and an inhibition at 50 µM of 76%. Molecule `Cc1ccnc(NC(=S)NC2CC(C)CC(C)(C)C2)c1` (stereo not shown) [Example 13, N-(2-(4-Methylpyridyl))-N'-(3,3,,5-trimethylcyclohexyl)-thiourea] came in with an IC50 of less than 50 µM and an inhibition at 50 µM of 57%. The molecule `Cc1ccnc(NC(=O)NC(=O)c2ccccc2)c1` [Example 14, N-(2-(4-Methylpyridyl))-N'-benzoyl-urea] yielded an IC50 of less than 10 µM and an inhibition at 50 µM of 96%. With `Cc1ccnc(NC(=S)NCCC[C@H](N)C(=O)O)c1` [Example 15, N-(2-(4-Methylpyridyl))-N'-(((S)-4-amino-4-carboxy)-n-butyl)-thiourea], the IC50 is less than 10 µM and the inhibition at 50 µM worked out at 85%.

`CCN(CC)S(=O)(=O)NC(=O)Nc1ccccn1` [Example 16, N-(2-Pyridyl)-N'-(diethylaminosulfonyl)-urea]: the half-maximal inhibitory concentration (IC50) was less than 10 µM and the inhibition at 50 µM is 55%. Take `CCN(CC)S(=O)(=O)NC(=O)Nc1ncccc1C` [Example 17]: the IC50 is less than 10 µM.

In the case of `CCN(CC)S(=O)(=O)NC(=O)Nc1cc(C)ccn1` [Example 18], the 50% inhibitory concentration (IC50) was less than 1 µM and the inhibition at 50 µM was found to be 92%. As to `CCN(CC)S(=O)(=O)NC(=O)Nc1ccc(C)cn1` [Example 19], the IC50 is less than 50 µM. Molecule `CCN(CC)S(=O)(=O)N(C)C(=O)Nc1cc(C)ccn1` [Example 20] yielded an IC50 of less than 1 µM. Molecule `COC(=O)C(=O)Nc1cc(C)ccn1` [Example 21, Oxalamide, N-(4-methyl-2-pyridyl), methyl ester] gave an IC50 of less than 1 µM. `COC(=O)CC(=O)Nc1cc(C)ccn1` [Example 22, Malonamide, N-(4-methyl-2-pyridyl), methyl ester] registered an IC50 greater than 50 µM and an inhibition at 50 µM of 57%.
